Assay results as given in patent US20260273252A1, “GROOVED MICRONEEDLES FOR PASSIVE AND ACTIVE DRUG DELIVERY” (Trustees of Tufts College, priority 2023, published 2026).

How the values were obtained:
[1] = test system: thermal nociception in rodents; experiment: Hot plate test, noxious thermal stimulus of 50 degrees Celsius (pilot studies); format: in vivo; details: for antinociceptive effects on thermal nociception (latency to lick a hind paw): 10 mg/kg i.p. for three consecutive days, hot plate 50 degrees Celsius, males, 24, 48 and 72 hours post treatment; for block of the antinociceptive effects of (2R,6R)-HNK by antagonist pretreatment: hot plate, given with (2R,6R)-HNK
Experimental: In addition, pilot studies were conducted to assess the antinociceptive potential of (2R,6R)-HNK (10 mg/kg intraperitoneal (i.p.) injection administered for three consecutive days) in response to a noxious thermal stimulus of 50 degrees Celsius on the hot plate apparatus. The latency to lick a hind paw was measured in males before and after (2R,6R)-HNK treatment at 24, 48, and 72 hours post treatment.

[2] = test system: gait function; experiment: Forced swim test, gait function; format: in vivo; details: compared with ketamine
[3] = test system: rodent model for CRPS and postoperative pain; details: cited from earlier work
[4] = test system: mice with a spinal nerve injury; details: 24 hours following a single injection; cited from earlier work
[5] = test system: PTSD symptoms in patients; details: cited from earlier work
[6] = 6 times over a 2-week period, 0.5 mg/kg 40-min infusions, treatment resistant subjects

Compound: N[C@@]1(c2ccccc2Cl)CCC[C@@H](O)C1=O [(2R,6R)-HNK, 2R,6R-hydroxynorketamine]
- antinociceptive effects on thermal nociception (latency to lick a hind paw) [1]: long-lasting antinociceptive effects
- impairment of gait function [2]: does not impair gait function significantly
- persistence of analgesic effects following administration [3]: up to five
- antinociceptive effects after a single injection [4]: Antinociceptive effects

Compound: O=C1CC[C@@]2(O)[C@H]3Cc4ccc(O)c5c4[C@@]2(CCN3CC2CC2)[C@H]1O5 [naltrexone]
- block of the antinociceptive effects of (2R,6R)-HNK by antagonist pretreatment [1]: failed to block

Compound: CNC1(c2ccccc2Cl)CCCCC1=O (racemic) [ketamine]
- median time to relapse after the cessation of treatment [5, 6]: 41 days
- start of persistent remission following the first infusion [5, 6]: ≥ 24 h
- persistence of resolution of PTSD symptoms before re-emergence ([5]; single dose, adults and children): over one
- patient health questionnaire score after treatment ([5]; six 1-hour infusions, mean final dose 163.83 mg, reduced from 18.5): 9.5
- PTSD checklist for DSM-5 after treatment ([5]; six 1-hour infusions, mean final dose 163.83 mg, reduced from 56.2): 31.3

Compound: NS(=O)(=O)c1cccc2c1c([N+](=O)[O-])cc1nc(O)c(O)nc12 [NBQX]
- block of the antinociceptive effects of (2R,6R)-HNK by antagonist pretreatment [1]: effectively block

Compound: N[C@]1(c2ccccc2Cl)CCC[C@H](O)C1=O [(2S,6S)-HNK]
- antinociceptive effects on thermal nociception (latency to lick a hind paw) [1]: not extended
